# Measurements as given in patent US20220081444A1, “6,7-DIHYDRO-4H-PYRAZOLO[1,5-A]PYRAZINE INDOLE-2-CARBOXAMIDES ACTIVE AGAINST THE HEPATITIS B VIRUS (HBV)” (AiCuris GmbH & Co. KG, priority 2018, published 2022).
# Counter-ions that a name gives are not always drawn.
# System: not listed separately
# Experiment: in vitro
# Conditions: human
row,Molecule,CC50
1,"CCc1cc(F)cc2[nH]c(C(=O)N3CCn4nc(NCC5CCOC5)cc4C3)cc12 (stereo not shown) [Example 29, 5-(4-ethyl-6-fluoro-1H-indole-2-carbonyl)-N-[(oxolan-3-yl)methyl]-4H,5H,6H,7H-pyrazolo[1,5-a]pyrazin-2-amine]",> 10000 nM
2,"CC1(S(=O)(=O)Nc2cc3n(n2)CCN(C(=O)c2cc4ccccc4[nH]2)C3)CC1 [Example 44, N-[5-(1H-indole-2-carbonyl)-4H,5H,6H,7H-pyrazolo[1,5-a]pyrazin-2-yl]-1-methylcyclopropane-1-sulfonamide]",> 10000 nM
3,"O=C(Nc1cc2n(n1)CCN(C(=O)c1cc3ccccc3[nH]1)C2)C1CC2CC1CN2 (stereo not shown) [Example 82, N-[5-(1H-indole-2-carbonyl)-4H,5H,6H,7H-pyrazolo[1,5-a]pyrazin-2-yl]-2-azabicyclo[2.2.1]heptane-5-carboxamide dihydrochloride]",> 10000 nM
4,"O=C(Nc1cc2n(n1)CCN(C(=O)c1cc3ccccc3[nH]1)C2)[C@H]1CCNC[C@@H]1F [Example 86, (3R,4R)-3-fluoro-N-[5-(1H-indole-2-carbonyl)-4H,5H,6H,7H-pyrazolo[1,5-a]pyrazin-2-yl]piperidine-4-carboxamide dihydrochloride]",> 10000 nM

# System: HBV
# Experiment: not given
# Conditions: Hepatitis B virus, HePAD38, 144 h, read-out: Cell Activity (EC50)
row,Molecule,EC50
1,"CCc1cc(F)cc2[nH]c(C(=O)N3CCn4nc(NCC5CCOC5)cc4C3)cc12 (stereo not shown) [Example 29, 5-(4-ethyl-6-fluoro-1H-indole-2-carbonyl)-N-[(oxolan-3-yl)methyl]-4H,5H,6H,7H-pyrazolo[1,5-a]pyrazin-2-amine]",< 1000 nM
2,"CC1(S(=O)(=O)Nc2cc3n(n2)CCN(C(=O)c2cc4ccccc4[nH]2)C3)CC1 [Example 44, N-[5-(1H-indole-2-carbonyl)-4H,5H,6H,7H-pyrazolo[1,5-a]pyrazin-2-yl]-1-methylcyclopropane-1-sulfonamide]",< 1000 nM
3,"O=C(Nc1cc2n(n1)CCN(C(=O)c1cc3ccccc3[nH]1)C2)C1CCN(C2CCOCC2)CC1 [Example 69, N-[5-(1H-indole-2-carbonyl)-4H,5H,6H,7H-pyrazolo[1,5-a]pyrazin-2-yl]-1-(oxan-4-yl)piperidine-4-carboxamide]",< 1000 nM
4,"CN1CC(C(=O)Nc2cc3n(n2)CCN(C(=O)c2cc4ccccc4[nH]2)C3)C1 [Example 70, N-[5-(1H-indole-2-carbonyl)-4H,5H,6H,7H-pyrazolo[1,5-a]pyrazin-2-yl]-1-methylazetidine-3-carboxamide]",1000 to 10000 nM
5,"O=C(c1cc2ccccc2[nH]1)N1CCn2nc(NCC3(O)CCC3)cc2C1 [Example 71, 1-({[5-(1H-indole-2-carbonyl)-4H,5H,6H,7H-pyrazolo[1,5-a]pyrazin-2-yl]amino}methyl)cyclobutan-1-ol]",< 1000 nM
6,"CC(CO)CNc1cc2n(n1)CCN(C(=O)c1cc3ccccc3[nH]1)C2 (stereo not shown) [Example 72, 3-{[5-(1H-indole-2-carbonyl)-4H,5H,6H,7H-pyrazolo[1,5-a]pyrazin-2-yl]amino}-2-methylpropan-1-ol]",< 1000 nM
7,"O=C(Nc1cc2n(n1)CCN(C(=O)c1cc3ccccc3[nH]1)C2)C1CCNCC1(F)F (stereo not shown) [Example 73, 3,3-difluoro-N-[5-(1H-indole-2-carbonyl)-4H,5H,6H,7H-pyrazolo[1,5-a]pyrazin-2-yl]piperidine-4-carboxamide]",< 1000 nM
8,"O=C(Nc1cc2n(n1)CCN(C(=O)c1cc3ccccc3[nH]1)C2)C1CCN(C2CC2)CC1 [Example 74, 1-cyclopropyl-N-[5-(1H-indole-2-carbonyl)-4H,5H,6H,7H-pyrazolo[1,5-a]pyrazin-2-yl]piperidine-4-carboxamide]",< 1000 nM
9,"CC1(CNc2cc3n(n2)CCN(C(=O)c2cc4ccccc4[nH]2)C3)CCOC1 (stereo not shown) [Example 75, 5-(1H-indole-2-carbonyl)-N-[(3-methyloxolan-3-yl)methyl]-4H,5H,6H,7H-pyrazolo[1,5-a]pyrazin-2-amine]",< 1000 nM
10,"O=C(c1cc2ccccc2[nH]1)N1CCn2nc(N[C@H]3C[C@H](O)C3)cc2C1 [Example 76, (1r,3r)-3-{[5-(1H-indole-2-carbonyl)-4H,5H,6H,7H-pyrazolo[1,5-a]pyrazin-2-yl]amino}cyclobutan-1-ol]",< 1000 nM
11,"O=C(c1cc2ccccc2[nH]1)N1CCn2nc(N[C@H]3CCC[C@@H](O)C3)cc2C1 [Example 77, (1R,3S)-3-{[5-(1H-indole-2-carbonyl)-4H,5H,6H,7H-pyrazolo[1,5-a]pyrazin-2-yl]amino}cyclohexan-1-ol]",< 1000 nM
12,"CC(C)OC1(CNc2cc3n(n2)CCN(C(=O)c2cc4ccccc4[nH]2)C3)CCC1 [Example 78, 5-(1H-indole-2-carbonyl)-N-{[1-(propan-2-yloxy)cyclobutyl]methyl}-4H,5H,6H,7H-pyrazolo[1,5-a]pyrazin-2-amine]",< 1000 nM
13,"O=C(c1cc2ccccc2[nH]1)N1CCn2nc(NCC3(CO)CCC3)cc2C1 [Example 79, [1-({[5-(1H-indole-2-carbonyl)-4H,5H,6H,7H-pyrazolo[1,5-a]pyrazin-2-yl]amino}methyl)cyclobutyl]methanol]",< 1000 nM
14,"COC1CCC(Nc2cc3n(n2)CCN(C(=O)c2cc4ccccc4[nH]2)C3)CC1 (stereo not shown) [Example 80, 5-(1H-indole-2-carbonyl)-N-(4-methoxycyclohexyl)-4H,5H,6H,7H-pyrazolo[1,5-a]pyrazin-2-amine]",< 1000 nM
15,"CN1CCC(C(=O)Nc2cc3n(n2)CCN(C(=O)c2cc4ccccc4[nH]2)C3)CC1C(F)(F)F (stereo not shown) [Example 81, N-[5-(1H-indole-2-carbonyl)-4H,5H,6H,7H-pyrazolo[1,5-a]pyrazin-2-yl]-1-methyl-2-(trifluoromethyl)piperidine-4-carboxamide]",< 1000 nM
16,"O=C(Nc1cc2n(n1)CCN(C(=O)c1cc3ccccc3[nH]1)C2)C1CC2CC1CN2 (stereo not shown) [Example 82, N-[5-(1H-indole-2-carbonyl)-4H,5H,6H,7H-pyrazolo[1,5-a]pyrazin-2-yl]-2-azabicyclo[2.2.1]heptane-5-carboxamide dihydrochloride]",1000 to 10000 nM
17,"O=C(c1cc2ccccc2[nH]1)N1CCn2nc(NCC3(O)CC(F)(F)C3)cc2C1 [Example 83, 3,3-difluoro-1-({[5-(1H-indole-2-carbonyl)-4H,5H,6H,7H-pyrazolo[1,5-a]pyrazin-2-yl]amino}methyl)cyclobutan-1-ol]",< 1000 nM
18,"O=C(c1cc2ccccc2[nH]1)N1CCn2nc(NC3(c4ccccc4)CC3)cc2C1 [Example 84, 5-(1H-indole-2-carbonyl)-N-(1-phenylcyclopropyl)-4H,5H,6H,7H-pyrazolo[1,5-a]pyrazin-2-amine]",< 1000 nM
19,"O=C(Nc1cc2n(n1)CCN(C(=O)c1cc3ccccc3[nH]1)C2)C1CCNCC1F (stereo not shown) [Example 85, 3-fluoro-N-[5-(1H-indole-2-carbonyl)-4H,5H,6H,7H-pyrazolo[1,5-a]pyrazin-2-yl]piperidine-4-carboxamide Trihydrochloride]",< 1000 nM
20,"O=C(Nc1cc2n(n1)CCN(C(=O)c1cc3ccccc3[nH]1)C2)[C@H]1CCNC[C@@H]1F [Example 86, (3R,4R)-3-fluoro-N-[5-(1H-indole-2-carbonyl)-4H,5H,6H,7H-pyrazolo[1,5-a]pyrazin-2-yl]piperidine-4-carboxamide dihydrochloride]",< 1000 nM
21,"CN1CCC(C(=O)Nc2cc3n(n2)CCN(C(=O)c2cc4ccccc4[nH]2)C3)C(F)(F)C1 (stereo not shown) [Example 87, 3,3-difluoro-N-[5-(1H-indole-2-carbonyl)-4H,5H,6H,7H-pyrazolo[1,5-a]pyrazin-2-yl]-1-methylpiperidine-4-carboxamide]",< 1000 nM
22,"CN1CCC(C(=O)Nc2cc3n(n2)CCN(C(=O)c2cc4ccccc4[nH]2)C3)C(F)C1 (stereo not shown) [Example 88, 3-fluoro-N-[5-(1H-indole-2-carbonyl)-4H,5H,6H,7H-pyrazolo[1,5-a]pyrazin-2-yl]-1-methylpiperidine-4-carboxamide]",< 1000 nM
23,"CN1CC[C@H](C(=O)Nc2cc3n(n2)CCN(C(=O)c2cc4ccccc4[nH]2)C3)[C@@H](F)C1 [Example 89, (3R,4R)-3-fluoro-N-[5-(1H-indole-2-carbonyl)-4H,5H,6H,7H-pyrazolo[1,5-a]pyrazin-2-yl]-1-methylpiperidine-4-carboxamide]",< 1000 nM
24,"O=C(c1cc2ccccc2[nH]1)N1CCn2nc(NC3(CO)CCC3)cc2C1 [Example 90, (1-{[5-(1H-indole-2-carbonyl)-4H,5H,6H,7H-pyrazolo[1,5-a]pyrazin-2-yl]amino}cyclobutyl)methanol]",< 1000 nM
25,"O=C(c1cc2ccccc2[nH]1)N1CCn2nc(N[C@H]3C[C@@H](O)C3)cc2C1 [Example 91, (1s,3s)-3-{[5-(1H-indole-2-carbonyl)-4H,5H,6H,7H-pyrazolo[1,5-a]pyrazin-2-yl]amino}cyclobutan-1-ol]",< 1000 nM
26,"O=C(c1cc2ccccc2[nH]1)N1CCn2nc(NC3(CO)CC3)cc2C1 [Example 92, (1-{[5-(1H-indole-2-carbonyl)-4H,5H,6H,7H-pyrazolo[1,5-a]pyrazin-2-yl]amino}cyclopropyl)methanol]",< 1000 nM
27,"CCc1cccc2[nH]c(C(=O)N3CCn4nc(NCC5(O)CCC5)cc4C3)cc12 [Example 93, 1-({[5-(4-ethyl-1H-indole-2-carbonyl)-4H,5H,6H,7H-pyrazolo[1,5-a]pyrazin-2-yl]amino}methyl)cyclobutan-1-ol]",< 1000 nM
28,"COC1(CNc2cc3n(n2)CCN(C(=O)c2cc4ccccc4[nH]2)C3)CCOC1 (stereo not shown) [Example 94, 5-(1H-indole-2-carbonyl)-N-[(3-methoxyoxolan-3-yl)methyl]-4H,5H,6H,7H-pyrazolo[1,5-a]pyrazin-2-amine]",< 1000 nM

# Same assay, conditions: read-out: Cell Activity (EC50); HBV DNA in HepAD38 supernatant at day 6, qPCR
row,Molecule,EC50
1,"3-yl)methyl]-4H,5H, 6H,7H-pyrazolo[1,5-a]pyrazin-2-amine [Example 25]",< 1000 nM

# System: HepAD38 cells
# Experiment: Cell viability assay (AlamarBlue cytotoxicity)
# Conditions: HepAD38 cells in the presence of 0.3 μg/ml tetracycline, six days incubation
row,Molecule,CC50
1,"3-yl)methyl]-4H,5H, 6H,7H-pyrazolo[1,5-a]pyrazin-2-amine [Example 25]",> 10000 nM
